The values that follow come from paper PMC2375353, “Effective treatment of experimental U-87MG human glioblastoma in nude mice with a targeted cytotoxic bombesin analogue, AN-215” (British Journal of Cancer, 2002).

The test system of this test is U-87MG human glioblastoma xenografted into nude mice. The test can be described thus: Experiment 2: growth of s.c. U-87MG xenografts, with BN receptor blockade. Type of test: in vivo, human tumour in male athymic nude mice. The note with it: RC-3095 200 μg i.v. 15 min before AN-215 150 nmol kg^-1. The protocol: Human glioblastoma cell line U-87MG was obtained from American Type Culture Collection (Manassas, VA, USA) and cultured as described ([Pinski et al, 1994]). Male athymic (Ncr nu/nu) nude mice, approximately 6-weeks-old on arrival, were obtained from the National Cancer Institute (Frederick Cancer Research and Development Center, Frederick, MD, USA), and housed in laminar air-flow cabinets under pathogen-free conditions with a 12 h light/12 h dark schedule, and fed autoclaved standard chow and water ad libitum. Xenografts were initiated by s.c. injection of 12×10^6 U-87MG cells into the right flanks of five male nude mice. Tumours resulting after 2 weeks were aseptically dissected, mechanically minced, and 3-mm^3 pieces of tumour tissue were transplanted s.c. with a trocar needle. The take rate was 100%. All experiments were performed in accordance with institutional ethical guidelines of animal care and were essentially in agreement with [UKCCCR guidelines (1998)] for the welfare of animals in experimental neoplasia.
Experiment 2 was started when U-87MG tumours had grown to 70–84 mm^3 in volume. The animals were divided into the following treatment groups: group 1 (10 mice), control, vehicle solution; group 2 (10 mice), analogue AN-215; group 3 (five mice), unconjugated mixture of the cytotoxic radical AN-201 and BN antagonist RC-3095. All compounds were injected i.v. at 150 nmol kg^−1 of BW on days 1, 10, and 17. In addition, one group of tumour-bearing mice received an i.v. injection of 200 μg of BN antagonist RC-3095 15 min before each administration of AN-215 at a dose of 150 nmol kg^−1 of BW on days 1, 10 and 17 as in the case of group 2. The experiment was terminated on day 20 as described above.
Data are expressed as mean±s.e. Differences between mean values were evaluated by two-tailed Student's t-test, P<0.05 being considered significant.

Turning to “[D-Tpi^6,Leu^13ψ(CH2NH)Leu^14]BN (6-14) [RC-3095, reference compound]”, the “Antitumour effect after BN receptor blockade” value is reported as “attenuated the antitumour effect of the cytotoxic BN analogue AN-215”.
